Test results taken from patent US20250020635A1, “ASSAY METHODS AND USES THEREOF FOR SCREENING ALZHEIMER'S DISEASE TREATMENT COMPOUNDS” (priority 2023, published 2025).

Assays:
HMC3 cells = test: Microglial phagocytosis/cell health high-content assay, HMC3 cells; format: cell-based; settings: 60 μM, 48 hrs, compared to control
Method: (§1) The assay introduced here is a simplified cellular imaging assay without any fixation and washing steps, while producing multiparameter measurements with high capacity using a 384-well plate format. The assay procedures include plating cells on day 1, incubating cell plates overnight before treating cells on day 2, adding pHrodo™-myelin/membrane debris to cell plates on day 3, and 20 hr later, staining cell nuclei with Hoechst-33342 for 30 min before performing high-content imaging on day 4. Three selected parameters are measured from cells: 1) mean total fluorescence intensity per cell of pHrodo™-myelin/membrane debris in phagocytosis vesicles to quantify phagocytosis; 2) cell counts per well to quantify treatment effects on proliferation and cell death; and 3) average nuclear intensity to quantify treatment-induced nuclear changes such as in apoptosis. The assay has been used on HMC3 cells (an immortalized human microglial cell line), BV2 cells (an immortalized mouse microglial cell line), and primary microglia isolated from mouse brains. For initial assay attempts, we recommend using HMC3 cells available from the ATCC.
(§2) All collected raw data are normalized to the untreated control with following formula: % of control=100×(X−Min)/(Max−Min). Factors in the formula are: X is raw data from a treated well, Max is an average measurement from pHrodo™-myelin seeded but untreated wells, and Min is an average measurement from no pHrodo™-myelin untreated wells. Normalized data are used for curve fitting that is done with the variable slope (four parameters) using the Prism software.
(§3) To ensure that the measurements reflect the steady state of compound treatment effects and cell health, the assay was set with a total compound treatment time of 48 hr, including pHrodo™-myelin/membrane debris seeding performed 20-24 hr after compound addition. […] Among many available quantitative measurements from the image analysis, we selected three parameters for the assay:
(§4) 1) The mean total intensity of phagocytosis vesicles/cell—to measure phagocytosis. There are multiple parameters generated from the image analysis, including phagocytosis vesicle area, number, and various fluorescence intensity measurements. Comparing these parameters, the total fluorescence intensity of vesicles/cell is the most sensitive one and was chosen for quantifying phagocytosis.
(§5) 2) The total cell counts—to measure overall cell viability, which is affected by proliferation and cell death. We chose to take 4 images/well (with the 10× objective lens) that cover about 50% of the total area of a well in a 384-well plate to represent cell count of the well.
(§6) 3) The average nuclear intensity—to measure drug-induced apoptosis, with high signal indicating nuclear condescension (a sign of early apoptosis) and low signal indicating DNA degradation (a sign of later apoptosis, when activated caspases digest DNA).
(§7) A phenotypic high-content imaging assay with simultaneous measurements of phagocytosis, cell number, and nuclear intensity was used to assess both cellular pharmacology and cell health. Model cell lines BV2 (immortalized mouse microglia, a gift from Dr. Michelle Block's laboratory at IUSM) and HMC3 (immortalized human microglia, obtained from ATCC, CRL-3304) were used to provide adequate throughput. Cells were cultured in DMEM GlutaMax media (ThermoFisher) containing 10% FBS and Pen-Strep in a 37° C. 5% CO2 incubator, plated in Corning Falcon 384 well Optilux Black and clear bottom plates: 400 cells/45 μl/well (BV2 cells), 600 cells/45 μl/well (HMC3 cells) and 2000 cell/45 μl/well (primary cells), and treated with 10× serially diluted compounds (60 μM-3 nM) for 48 hrs at 37° C. […]

BV2 cells = test: Microglial phagocytosis/cell health high-content assay, BV2 cells; format: cell-based; settings: for Ave. % Cell Count @ 60 uM BV2 cells / Ave. % Phagocytosis @ 60 uM BV2 cells: 48 hrs, compared to control
Method: as §1, §2, §3, §4, §5, §6, §7

[1] = Kinetic solubility in pH 7.4 phosphate buffer; format: physicochemical
Method: (§8) Physicochemical and ADME properties were determined using the following assays: microsomal stability intrinsic clearance (Clint) in mouse liver microsomal solution, MDCK permeability (Papp), protein binding (fu) in mouse plasma, and kinetic solubility in pH 7.4 phosphate buffer (Table 7).

His-PLCγ2 protein = molecular target: T1, His-PLCγ2 protein (Homo sapiens, UniProt P16885); test: Affinity selection mass spectrometry (ASMS); format: binding; settings: dose range 100-0.05 μM, PLCγ2 400 nM
T1 sequence (P16885 1-1265): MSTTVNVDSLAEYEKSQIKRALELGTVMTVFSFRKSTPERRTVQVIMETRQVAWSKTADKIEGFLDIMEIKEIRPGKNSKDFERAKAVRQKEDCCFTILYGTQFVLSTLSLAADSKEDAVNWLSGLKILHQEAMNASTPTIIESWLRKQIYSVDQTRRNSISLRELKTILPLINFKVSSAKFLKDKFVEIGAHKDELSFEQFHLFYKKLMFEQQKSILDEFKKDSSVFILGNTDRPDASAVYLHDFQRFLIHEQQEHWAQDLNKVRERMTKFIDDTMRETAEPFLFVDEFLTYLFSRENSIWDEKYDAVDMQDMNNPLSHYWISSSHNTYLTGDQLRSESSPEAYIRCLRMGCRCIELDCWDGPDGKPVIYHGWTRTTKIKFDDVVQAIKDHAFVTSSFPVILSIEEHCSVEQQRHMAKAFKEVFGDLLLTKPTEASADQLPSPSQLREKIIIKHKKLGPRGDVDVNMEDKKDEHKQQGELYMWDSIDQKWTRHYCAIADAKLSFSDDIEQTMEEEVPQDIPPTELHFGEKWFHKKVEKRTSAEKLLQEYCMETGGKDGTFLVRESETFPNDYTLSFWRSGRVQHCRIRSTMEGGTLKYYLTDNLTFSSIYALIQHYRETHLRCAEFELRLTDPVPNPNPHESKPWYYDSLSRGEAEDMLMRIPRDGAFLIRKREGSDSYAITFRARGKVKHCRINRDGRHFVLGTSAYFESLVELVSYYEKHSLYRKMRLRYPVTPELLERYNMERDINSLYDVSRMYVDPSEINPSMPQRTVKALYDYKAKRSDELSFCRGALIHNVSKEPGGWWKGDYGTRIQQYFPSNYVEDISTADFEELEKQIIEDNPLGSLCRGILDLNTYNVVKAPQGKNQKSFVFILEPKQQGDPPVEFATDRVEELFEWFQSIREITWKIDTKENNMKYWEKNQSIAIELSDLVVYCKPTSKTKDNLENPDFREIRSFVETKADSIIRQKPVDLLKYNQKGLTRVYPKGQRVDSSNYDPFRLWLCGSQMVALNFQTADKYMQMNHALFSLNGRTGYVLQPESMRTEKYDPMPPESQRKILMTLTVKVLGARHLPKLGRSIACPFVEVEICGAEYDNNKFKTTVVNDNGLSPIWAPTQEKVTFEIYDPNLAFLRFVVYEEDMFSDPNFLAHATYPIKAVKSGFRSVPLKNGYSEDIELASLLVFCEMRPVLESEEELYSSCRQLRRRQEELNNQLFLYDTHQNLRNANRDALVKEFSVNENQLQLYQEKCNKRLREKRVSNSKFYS
Method: Using a dose range of 100-0.05 μM in 384 well low-volume polypropylene microtiter plates, a solution of PLCγ2 (final concentration 400 nM) was transferred to biochip arrays functionalized with a Tris-Ni-NTA-presenting self-assembled monolayer to immobilize the His-tagged protein. The arrays were incubated for 90 min in a humidified chamber to prevent evaporation and allow for specific immobilization of the His-PLCγ2 protein, along with any bound small molecules. The arrays were purified by a rapid <3 second gentle wash step with deionized ultra-filtered water and dried with compressed air. ASMS was performed using the reflector positive mode on an Aβ Sciex TOF-TOF 5800 System (Aβ Sciex, Framingham, MA).

[2] = Protein binding in mouse plasma; format: in vitro ADME
Method: as §8

[3] = Microsomal stability intrinsic clearance; format: in vitro ADME; settings: mouse liver microsomes
Method: as §8

HiBit only = test: Cellular thermal shift assay (CETSA), HiBit only control; format: cell-based, human; settings: for HiBit only %, percent luminescence at highest dose with HiBit only compared to control (DMSO): 100 μM

| SMILES | Ave. % Cell Count @ 60 uM HMC3 cells (HMC3 cells) [%] | Ave. % Phagocytosis @ 60 uM HMC3 cells (HMC3 cells) [%] | Ave. % Cell Count @ 60 uM BV2 cells (BV2 cells) [%] | Ave. % Phagocytosis @ 60 uM BV2 cells (BV2 cells) [%] | Kinetic solubility [1] [µM] | target engagement, signal against background (His-PLCγ2 protein) | fu, fraction unbound [2] | Clint, intrinsic clearance [3] [µL/min/mg] | HiBit only %, percent luminescence at highest dose with HiBit only compared to control (DMSO) (HiBit only) [%] | HiBit only % @100 μM (HiBit only; Table 1, @100 μM) [%] | phagocytosis increase against cell count decline (BV2 cells; HMC3 and BV2 cells (Table 6, FIGS. 21, 22)) |
| --- | --- | --- | --- | --- | --- | --- | --- | --- | --- | --- | --- |
| Cc1cc(C)c(S(=O)(=O)Nc2cccc(C(F)(F)F)c2)c(C)c1 [Compound 1, 2,4,6-trimethyl-N-(meta-3-trifluoromethyl-phenyl)-benzenesulfonamide, reference compound] | 3 | 0 | 2 | 0.05 | 21 to 40 | neither 1 or 2 indicated substantial evidence of target engagement | – | – | – | – | – |
| Cc1cc(C)c(S(=O)(=O)Nc2ccccc2C(F)(F)F)c(C)c1 [Compound 2, o-3M3FBS, reference compound] | 103 | 99 | 104 | 104 | – | neither 1 or 2 indicated substantial evidence of target engagement | – | – | – | – | – |
| O=S(=O)(Nc1ccc(Br)cc1F)c1cccs1 [Compound 8] | 88 | 104 | 86 | 114 | >100 | – | 0.0193 | 77.83 | 44 | 44 | – |
| Cc1cc(C)c(S(=O)(=O)NC2CCCNC2)c(C)c1 (centres unmarked) [Compound 11] | 65 | 146 | 63 | 225 | – | – | – | – | 93 | – | moderate degree of potential cytotoxicity |
